For data set [1], the target named is T1, DDX3X helicase activity (Homo sapiens, UniProt O00571).
T1 construct: Recombinant his-tagged human full length DDX3X; His tag; made in house; host or cells: ShuffleT7 E. coli
Description: FRET-based DDX3X helicase assay. It is filed as biochemical. The conditions noted are these: for IC50: FRET helicase assay, recombinant DDX3X, read-out: IC50 ± SD, DDX3X anti-enzymatic (helicase) activity. Here is the method: Recombinant his-tagged human full length DDX3X cloned the E. coli expression vector pET-30a(+). ShuffleT7 E. coli cells were transformed with the plasmid and grown at 37 °C up to OD600 = 0.7. DDX3X expression was induced with 0.5 mM IPTG at 15 °C O/N. Cells were harvested by centrifugation, lysed, and the crude extract was centrifuged at 100,000 g for 60 min at 4 °C in a Beckman centrifuge before being loaded onto a FPLC Ni-NTA column (GE Healthcare, Chicago, IL, USA). The column was equilibrated in Buffer A (50 mM Tris-HCl pH 8.0, 250 mM NaCl, 25 mM Imidazole and 20% glycerol). After extensive washing in Buffer A, the column was eluted with a linear gradient in Buffer A from 25 to 250 mM Imidazole. Proteins in the eluted fractions were visualized on SDS-PAGE and tested for the presence of DDX3X by Western blot with anti-DDX3X A300-475A (Bethyl Laboratories, Montgomery, TX, USA) at 1:4000 dilution in 5% milk. Fractions containing the purest DDX3X protein were pooled and stored at −80 °C.
The dsRNA substrate for the helicase assay was prepared by hybridizing two ss RNA oligonucleotides with the following sequences: • Fluo-FAM 5′ […] 3′ • Qu-BHQ1 5′ […] 3′ • DNA capture 5′ […] 3′.
The sequence in Fluo-FAM complementary to Qu-BHQ1 is underlined. Fluo-FAM carries a 6-carboxyfluorescein fluorophore at its 3′ end, while Qu-BHQ1 carries a Black Hole quencher group at its 5′ end. The DNA capture oligonucleotide is complementary to the Qu-BHQ1 oligonucleotide, but it bears no modifications. A helicase assay using the dsRNA substrate was performed in 20 mM TrisHCl (pH 8), 70 mM KCl, 2 mM MgCl2, 2 mM dithiothreititol, 12 units RNasin (Promega), 2 mM ATP, 50 nM dsRNA, and 100 nM capture strand in 20 μL of reaction volume. The unwinding reaction was started by adding 60 pmols of DDX3X recombinant protein and carried out at 37 °C for 40 min using a LightCycler 480 (Roche, Basel, Switzerland). The fluorescence intensity was recorded every 30 s. Values of fluorescence signal in the presence or in the absence of inhibitor molecules were analyzed by linear interpolation, and the corresponding slope values were used to determine the apparent unwinding rate.
The IC50 values have been calculated from dose–response curves. Data (in triplicate) were plotted and analyzed by least-squares nonlinear regression, according to the method of Marquardt–Levenberg, with the computer program GraphPad Prism 6.0. Data were fitted to the following equation:Eobs = Emax/(1 + (IC50/[I])^n)(1) where E(obs) is the observed enzymatic activity in the presence of each inhibitor dose [I]; E(max) is the maximal enzymatic activity in the absence of the inhibitor; and n is an exponential term to take into account sigmoidal dose–response curves.
All the compounds were tested for their ability to inhibit the helicase activity of DDX3X using a fluorescence resonance energy transfer (FRET)-based assay, as previously described. Values of fluorescence signal in the presence or in the absence of inhibitor molecules were analyzed by linear interpolation (for details, see Methods 2.3.2).

In data set [2] the test system is U87 cells. The data set can be described thus: MTS cytotoxicity assay, U87 cells. It is filed as cell-based. The conditions noted are these: 72 h. As to the method: (§1) For CellTiter 96® Aqueous One Solution Cell Proliferation Assay (MTS) (Promega, Madison, WI, USA), cells were seeded at 5 × 10^3 per well in 96-well plates in quadruplicate together a control with no cells to evaluate the background. After 24 h, the culture medium was removed, and fresh medium containing increasing concentrations of chemical compounds was added to cells. […] DMSO was the vehicle used for dilution of the compounds, and its final concentration on cells was less than 0.2%. Medium-only containing wells were included as controls. Cells were incubated with compounds at different concentrations for 72 h, then, 20 µL of CellTiter 96® AQueous One Solution Reagent was added into each well. After 3 h at 37 °C in a humidified, 5% CO2 atmosphere, the absorbance at 492 nm was recorded using an EZREAD400 (Biochrom, Cambridge, United Kingdom) plate reader. The average 490 nm absorbance from the “no cell” control wells was subtracted from all other values to yield background-corrected absorbance. Dose–response curves and CC50 values have been calculated by plotting the absorbance data as a function of inhibitor concentrations and fitting the data by least-squares nonlinear regression, according to the method of Marquardt–Levenberg, with the computer program GraphPad Prism 6.0.
(§2) Cells were incubated with a scalar concentration of DDX3X inhibitors, and after 72 h of treatment, cell viability was assessed by cytotoxicity assay. […] Compounds 4, 6, and BA103 were also evaluated against BJ primary fibroblasts; compound 4 has a cytotoxicity value of 84.7 μM; on the contrary, compounds 6 and BA103 were not toxic up to 200 μM concentration. This further excluded a possible nonspecific cytotoxic effect. […] Due to its interesting profile, compound BA103 was further tested against additional pulmonary (A549), breast (MDA-MB-231), colorectal (HCT-116), osteosarcoma (U2OS), rhabdomyosarcoma (RD18), GBM (DBTRG, U87, and U251) and medulloblastoma (DAOY) cancer cell lines.
(§3) Figure 5 Cytotoxicity of selected compounds. Compounds were assayed on DU-145, PC3, HepG2, Huh-7, HN6, U251, and U87 cell lines. The concentration of the compound, which reduced the number of viable cells by 50% (CC50), was determined by dose–response curve, and the mean CC50 value for each cell line was calculated by triplicate assays (raw data from U87 and U251 cells with dose–response curves used for the calculation of CC50 in Table S1 and Figure S2).
(§4) Table S1: Raw data of optical absorbance at 490 nm from MTS assay in U87 and U251 cells. Tables contain
(§5) means with SD of at least 5 different values that were used for preparation of figure 5.
In general terms: Tetrazolium assays rely on reduction of a dye to a coloured formazan, in cell work by metabolically active cells.

Data set [3] deals with U251 cells. Description: MTS cytotoxicity assay, U251 cells. It is filed as cell-based. The conditions noted are these: 72 h. As to the method: as §1, §2, §3, §4, §5
The subject of data set [4] is panel of cancer cell lines (Du-145, PC3, HepG2, Huh-7, HN6, U87 and U231). Description: Cytotoxicity screen on panel of cancer cell lines. It is filed as cell-based. The conditions noted are these: 72 h of treatment. As to the method:
For CellTiter 96® Aqueous One Solution Cell Proliferation Assay (MTS) (Promega, Madison, WI, USA), cells were seeded at 5 × 10^3 per well in 96-well plates in quadruplicate together a control with no cells to evaluate the background. After 24 h, the culture medium was removed, and fresh medium containing increasing concentrations of chemical compounds was added to cells. The fixed final concentrations were 0.1 μM, 1 μM, 10 μM, and 100 μM. DMSO was the vehicle used for dilution of the compounds, and its final concentration on cells was less than 0.2%. Medium-only containing wells were included as controls. […] After 3 h at 37 °C in a humidified, 5% CO2 atmosphere, the absorbance at 492 nm was recorded using an EZREAD400 (Biochrom, Cambridge, United Kingdom) plate reader. The average 490 nm absorbance from the “no cell” control wells was subtracted from all other values to yield background-corrected absorbance. Dose–response curves and CC50 values have been calculated by plotting the absorbance data as a function of inhibitor concentrations and fitting the data by least-squares nonlinear regression, according to the method of Marquardt–Levenberg, with the computer program GraphPad Prism 6.0.
Cells were incubated with a scalar concentration of DDX3X inhibitors, and after 72 h of treatment, cell viability was assessed by cytotoxicity assay. […]

T1 sequence (O00571 whole entry): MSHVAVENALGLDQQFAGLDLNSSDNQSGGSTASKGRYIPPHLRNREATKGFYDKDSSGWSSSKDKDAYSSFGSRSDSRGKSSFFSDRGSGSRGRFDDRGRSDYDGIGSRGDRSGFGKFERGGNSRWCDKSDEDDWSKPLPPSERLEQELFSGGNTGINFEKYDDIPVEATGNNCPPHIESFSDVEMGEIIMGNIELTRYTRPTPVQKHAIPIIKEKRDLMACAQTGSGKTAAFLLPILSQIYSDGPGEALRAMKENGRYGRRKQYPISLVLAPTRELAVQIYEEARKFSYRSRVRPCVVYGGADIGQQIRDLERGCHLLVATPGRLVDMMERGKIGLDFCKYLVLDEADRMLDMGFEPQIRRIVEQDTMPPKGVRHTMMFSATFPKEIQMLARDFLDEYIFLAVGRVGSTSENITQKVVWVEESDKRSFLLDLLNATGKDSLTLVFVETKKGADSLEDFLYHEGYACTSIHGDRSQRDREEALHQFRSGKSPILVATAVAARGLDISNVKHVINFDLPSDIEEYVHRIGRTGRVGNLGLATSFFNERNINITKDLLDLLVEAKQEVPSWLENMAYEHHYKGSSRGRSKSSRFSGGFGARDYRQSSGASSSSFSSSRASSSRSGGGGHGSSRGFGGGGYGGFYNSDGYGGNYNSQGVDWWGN

“1-(4-(4-Butyl-1H-1,2,3-triazol-1-yl)phenyl)-3-(4-methylpyridin-3-yl)urea [Compound 14]”: the IC50 (in general, the concentration that gives 50% inhibition) in data set [1] stood at 2000 ± 300 nM.

Take “1-(4-(4-Isopentyl-1H-1,2,3-triazol-1-yl)phenyl)-3-(4-methylpyridin-3-yl)urea [Compound 13]”: the IC50 in data set [1] amounted to 1500 ± 300 nM.

With `CCCCc1cc(-c2ccc(NC(=O)Nc3ccccc3C(F)(F)F)cc2)no1` [Compound 2, 1-(4-(5-Butylisoxazol-3-yl)phenyl)-3-(2-(trifluoromethyl)phenyl)urea], in data set [1] (during the enzymatic assay), the “solubility in assay medium” value is listed as “precipitated from medium”.

Consider `CCCCn1nnc(-c2ccc(NC(=O)Nc3ccccc3C)cc2)n1` [Compound 5, 1-(4-(2-Butyl-2H-tetrazol-5-yl)phenyl)-3-(o-tolyl)urea], for which, in data set [1] (DDX3X helicase inhibition relative to compound 1), the “times less active than hit compound 1 (loss of activity)” value is on record as 16 times.

For `CCCCc1nnc(-c2ccc(NC(=O)Nc3ccccc3C(F)(F)F)cc2)s1` [Compound 8, 1-(4-(5-Butyl-1,3,4-thiadiazol-2-yl)phenyl)-3-(2-(trifluoromethyl)phenyl)urea], the IC50 in data set [1] came out at 50000 ± 7000 nM. Also, the “mean absorbance at 490 nm (MTS)” value in data set [2] (U87, 0,01 uM) is reported as 2,267; in data set [2] (U87, 0,1 uM), 1,994; in data set [2] (U87, 1 uM) it was 1,965; in data set [2] (U87, 10 uM), 1,945; in data set [2] (U87, 100 uM), 1,054; in data set [3] (U251, 0,01 uM) it was 2,363. The “mean absorbance at 490 nm (MTS)” value in data set [3] (U251, 0,1 uM) is 2,282; in data set [3] (U251, 1 uM), 2,177; in data set [3] (U251, 10 uM), 1,806; in data set [3] (U251, 100 uM), 0,786. For the same compound, in data set [4], the “growth inhibition in all the cell lines tested” value is on record as “poorly effective against all the cell lines tested”.

On to `CC(C)CCc1cn(-c2ccc(NC(=O)Nc3ccccc3C(F)(F)F)cn2)nn1` [Compound 9, 1-(6-(4-Isopentyl-1H-1,2,3-triazol-1-yl)pyridin-3-yl)-3-(2-(trifluoromethyl)phenyl)urea], for which the half-inhibitory concentration (IC50) in data set [1] is 1100 ± 200 nM.

These data come from paper PMC8582824, “Targeting DDX3X Helicase Activity with BA103 Shows Promising Therapeutic Effects in Preclinical Glioblastoma Models” (Cancers, 2021).
